# Measurements published in patent publication US20140235649A1, “USE OF PHOSPHATASE INHIBITORS OR HISTONE DEACETYLASE INHIBITORS TO TREAT DISEASES CHARACTERIZED BY LOSS OF PROTEIN FUNCTION” (LIXTE BIOTECHNOLOGY, INC., priority 2011, published 2014).
# “Also recorded” adds a separate entry of the source.
# Key:
# [1] = system: beta-glucocerebrosidase (GBA); experiment: GBA levels in human cells from Gaucher's disease type 1 / type 3 patients (Examples 2-4)
# ΔSDHB-L65P = ΔSDHB-L65P protein half-life through CHX treatment, Western blot, HeLa cells; type: cell-based, human
# Procedure: Western blot analysis was performed as previously described with minor modifications (Zhuang et al, 2011). Microdissected tumor tissue and cell pellets were extracted for protein using RIPA lysis buffer supplemented with Halt proteinase inhibitor cocktail (Thermo Scientific, Rockford, Ill.). Protein was vortexed at 4° C. for 20 min and centrifuged in 12,000 g for 10 min at 4° C. Supernatant was collected and protein quantity was identified through a Bio-Rad (Hercules, Calif.) Protein Assay kit. Equal amount of proteins were separated on NuPAGE 4-12% Bis-Tris gel (Invitrogen, Carlsbad, Calif.) and transferred to PVDF membranes (Invitrogen). Membranes were blocked in 5% skim dried milk in PBST and blotted with primary antibody. Protein expression was identified through chemiluminescence kit (Thermo Scientific). The following antibodies were used: SDHA (1:1,000, Cell Signaling Technology, Beverly, Mass.), SDHB (1:1,000, Sigma-Aldrich, St. Louis Mo.), Flag (1:2,000, Origene, Rockville, Md.), Ubiquitin (1:1,000, Abcam, Cambridge, Mass.), HA (1:2,000, Origene), Hsp90 (1:1,000, Cell Signaling Technology) and β-Actin (1:1,000, Santa Cruz Biotechnology, Inc., Santa Cruz, Calif.).
# HeLa cells were maintained in DMEM containing 10% FBS (Invitrogen). Cells were transfected with SDHB vectors by FuGENE 6 transfection reagent (Roche, Indianapolis, Ind.). Medium was changed 4 hours after transfection and cells were maintained 48 hours before cycloheximide (20 μg/mL, Sigma-Aldrich) treatment.
# Ubiquitin-HA vector was described previously (Kamitani et al. (1997)). Human wild type SDHB gene was cloned into pCMV6-Entry vector (Origene). Hot spot missense mutations in SDHB related PHEOs/PGLs based on previous findings (Van Nederveen et al. (2006); Henderson et al. (2009); Pawlu et al. (2005)). Mutagenesis was performed based on wild type SDHB vector using a Quikchange Lightning Site-Directed Mutagenesis Kit (Agilent, Santa Clara, Calif.). For each mutant, the sequence of SDHB gene was verified through sequencing the entire coding region of the gene. Vectors were purified through PureLink HiPure Plasmid Maxiprep kit (Invitrogen) for transfection and cell free protein expression.
# SDHB protein = SDHB protein levels in tumor cells from SDHB derived tumors (Examples 9-10); settings: Example 9, versus untreated cells
# [2] = system: missense glucocerebrosidase; settings: previously found (REF); cited from earlier work
# VHL protein = VHL protein levels in tumor cells from VHL derived tumors (Examples 6-7); settings: Example 6, versus untreated cells
# mutant SDHB protein = experiment: Immunoprecipitation of mutant SDHB: ubiquitination and Hsp90 binding; type: cell-based, human; settings: immunoprecipitated ΔSDHB-R49Q (FIG. 14E)
# Procedure: Protein was extracted from cell cultures using IP lysis buffer with Halt proteinase inhibitor cocktail (Thermo Scientific). Four hundred microgram of total protein was precipitated with Flag antibody (1:200, Origene) using a DynaBeads Protein G immunoprecipitation kit (Invitrogen). Proteins were precipitated overnight at 4° C. and eluted for Western blot analysis.
# ΔGBA-L444P = experiment: Metabolic [35S] pulse chase assay, HeLa cells with ΔGBA-L444P vector; type: cell-based, human; settings: L444P mutant
# Procedure: (§1) Human GBA gene was cloned into pCMV6-Entry vector (Origene; Rockville, Md.). Mutagenesis was performed using a QuikChange Lightning Site-directed mutagenesis kit (Agilent; Santa Clara, Calif.). Mutagenesis reaction was conducted using primers with N370S and L444P mutation sites. For each mutant, the sequence of GBA genes was verified by sequencing the entire coding regions.
# (§2) Metabolic [^35S] pulse chase assay was performed as previously described with minor modifications (16). A total of 5×10^5 HeLa cells were transfected with GBA vectors through FuGene 6 transfection reagent (Roche; Indianapolis, Ind.). Cells were used for pulse chase assay 24 hr after transfection. Cells were starved in methionine-depleted medium for 15 min followed by 15 min labeling in methionine-free Delbecco's modified Eagle medium (DMEM) supplemented with 10% FBS and 0.2 mCi/mL [^35S]-methionine ([…] specific activity, Perkin Elmer). The cells were then chased in DMEM with 10% FBS and 3 mg/mL methionine. Cells were extracted for protein within various durations after radioactive labeling. Cells were lysed in RIPA lysis buffer containing with Halt proteinase inhibitor cocktail (Thermo; Waltham, Mass.). GBA proteins were purified through immunoprecipitation using 200 ug total lysate with Flag antibody (Origene; Rockville, Md.). Precipitated proteins were resolved on NuPAGE Novex 4-12% Bis-Tris Gel (Invitrogen; Carlesbad, Calif.) and measured by liquid scintillation counting. The gel was fixed and incubated in EN3HANCE (Perkin Elmer; Waltham, Mass.) for 45 min and dried for X-ray film exposure.
# ΔGBA-N370S = experiment: Metabolic [35S] pulse chase assay, HeLa cells with ΔGBA-N370S vector; type: cell-based, human; settings: N370S mutant
# Procedure: as §1, §2
compound,measurement,setting,value
CN1CCN(C(=O)C2C(C(=O)O)[C@H]3CC[C@@H]2O3)CC1 (stereo partly shown) [LB100],GBA levels / amount of GBA,"[1]; Gaucher's disease type 1 and type 3 cells, 24 hours (Example 3, FIG. 1-3)","increased; also recorded: increased in all treatments, and the increase was not dose-dependent; also recorded: significantly higher than in untreated cells"
same,GBA levels,"[1]; Gaucher's disease type 3 cells, 24 hours (Example 2)",significantly higher than in untreated cells
O=C(CCCCCNC(=O)c1ccccc1S)Nc1ccccc1 [LB-201],degradation / loss of mutant SDHB protein,ΔSDHB-L65P; L65P mutant,slowed the degradation of mutant protein; also recorded: decreased the loss of mutant SDHB
same,SDHB levels,SDHB protein,significantly higher than in untreated cells
same,degradation of SDHB,SDHB protein,decreased degradation of SDHB
same,co-translational degradation of missense glucocerebrosidase,[2],protect missense glucocerebrosidase from co-translational degradation
same,VHL levels,VHL protein,significantly higher than in untreated cells
same,degradation of VHL,VHL protein,decreased degradation of VHL
same,Hsp90 binding to mutant SDHB,mutant SDHB protein,also decreased
same,SDHB mutant protein ubiquitination,mutant SDHB protein,decreased SDHB mutant protein ubiquitination
CC1=C(O)C(=O)C=C2C1=CC=C1[C@@]2(C)CC[C@@]2(C)[C@@H]3C[C@](C)(C(=O)O)CC[C@]3(C)CC[C@]12C [celastrol],SDHB protein remaining intact,"ΔSDHB-L65P; L65P, after a 2 hr CHX treatment",more than 50%
same,increase in [35S]-GBA residue,ΔGBA-L444P,104%
same,increase in radioactively labeled protein quantity,ΔGBA-N370S,33%
